Reference: patent US20060264509A1, “Methods for treating pain using smooth muscle modulators and a2 subunit calcium channel modulators” (priority 2003, published 2006)
Several values for one entry are separate records, joined by “and”; a condition that tells them apart may be missing. Equal entries are not always repeated. Where two headings read alike, the source gives them in different places.

Assays:
bladder capacity = assay: Dilute acetic acid irritative model, bladder capacity by cystometry in urethane-anesthetized rats; assay type: in vivo, rat; conditions: for effectiveness of drug alone on bladder capacity: i.v.; for effective dose range of the drug in the isobologram combinations compared with the drug alone: individual animals, return to 31% of saline control
Experimental: Subsequently, three series at markedly lower doses and at different dose ratios were performed for the purposes of isobologram construction (n=4/group).
Subsequent studies aimed at isobologram construction combined the drugs in dose combinations as shown in the table below (low, middle and high doses for each drug paired).
The abdominal cavity was moistened with saline and closed by covering with a thin plastic sheet in order to maintain access to the bladder for emptying purposes.
Bladder capacity data for each animal were normalized to “% Recovery from Irritation,” and this index was used as the measure of efficacy. Data from experiments in which each of the drugs were administered alone were utilized to create theoretical populations of additive effects for each dose (low, mid and high), and these were compared by one-tailed t-test (individual dose comparisons) and by 2-Way ANOVA (across doses) to the actual combination drug data. The means and standard deviations of each individual treatment's “dose-matched” (low, middle, and high) responses were added together to estimate the mean and standard deviation of the theoretical additive populations for which to compare to the actual data obtained from the combination experiments. The theoretical additive effect population N=(Nantimuscarinic+Nα28 subunit modulator)−1. P<0.050 was considered significant.
Isobologram construction consisted of two methods, both utilizing the same data, but plotting the results either as group means or by individual responses. […] When utilizing individual responses for both drugs alone and the combinations listed in the above table, the target value was 31% of saline control. […] For statistical purposes, the data were analyzed making comparisons for each drug, regardless of whether alone or in combination.

[1] = for pharmacokinetic drug-drug interaction between oxybutynin and gabapentin: rat, i.v. 3 mg/kg oxybutynin and 100 mg/kg gabapentin
[2] = test system: nociception induced by formalin and carrageenan; mechanical hyperalgesia and mechanical/thermal allodynia; conditions: Rose et al. (2002); cited from earlier work
[3] = test system: painful symptoms associated with diabetic peripheral neuropathy, post-herpetic neuralgia, and neuropathic pain; conditions: double-blind, placebo-controlled trials; cited from earlier work
[4] = preclinical and clinical studies, cited from earlier work
beta-adrenergic blocking = conditions: cited from earlier work
[5] = analyte gabapentin in rat plasma, i.v. 100 mg/kg gabapentin alone (Gab) or with 3 mg/kg oxybutynin (Com), group Mean
[6] = analyte gabapentin in rat plasma, i.v. 100 mg/kg gabapentin alone (Gab) or with 3 mg/kg oxybutynin (Com), group Mean, outliers excluded
[7] = analyte gabapentin in rat plasma, i.v. 100 mg/kg gabapentin alone (Gab) or with 3 mg/kg oxybutynin (Com), individual animals

## NCC1(CC(=O)O)CCCCC1 [Gab, 1-(aminomethyl) cyclohexaneacetic acid]
Bladder capacity
  effectiveness of drug alone on bladder capacity: modest effectiveness
  effective dose range of the drug in the isobologram combinations compared with the drug alone: significantly lower
[1]; [5]
  AUC0-∞: 1.62e+07 ng·min/mL
  CL: 6.52 mL/min/kg
  Vz: 1.242 L/kg
  t1/2: 128 min
[1]; [6]
  AUC0-t: 9.45e+06 ng·min/mL
  Cmax: 98.6 µg/mL
[1]; [7]
  AUC0-∞: 1.95e+07 ng·min/mL
  CL: 5.12 mL/min/kg
  Tmax: 15 min and 30 min
  Vz: 0.91 L/kg and 0.89 L/kg
[1]; rat plasma, i.v., Table 2
  comparison of Cmax and AUC0-T data for gabapentin between single-drug group and combination (Com) group: no appreciable difference
[1]
  pharmacokinetic drug-drug interaction between oxybutynin and gabapentin: No evidence of drug-drug interaction
[2]
  effect in neuropathic pain models of mechanical hyperalgesia and mechanical/thermal allodynia: inhibitory effect
  effect on nociception induced by formalin and carrageenan: block the tonic phase of nociception
[3]
  efficacy for painful symptoms associated with diabetic peripheral neuropathy, post-herpetic neuralgia, and neuropathic pain: effective treatment

## CCN(CC)CC#CCOC(=O)C(O)(c1ccccc1)C1CCCCC1 (stereo not drawn) [Oxy, 4-diethylaminio-2-butynyl phenylcyclohexyglycolate]
Bladder capacity
  effectiveness of drug alone on bladder capacity: modest effectiveness
  effective dose range of the drug in the isobologram combinations compared with the drug alone: significantly lower
[1]
  pharmacokinetic drug-drug interaction between oxybutynin and gabapentin: No evidence of drug-drug interaction

## CC(OC(=O)NCC1(CC(=O)O)CCCCC1)OC(=O)C(C)C (stereo not drawn) [XP13512]
[4]; oral
  blood levels of gabapentin across a broad range of oral doses: dose proportional
[4]
  absorption from the large intestine: absorbed efficiently

## CCNCC#CCOC(=O)C(O)(c1ccccc1)C1CCCCC1 (stereo not drawn) [desethyl oxybutynin, N-desethyl-oxybutynin]
[1]; rat plasma, i.v., Table 4
  comparison of Cmax and AUC0-t data for desethyl oxybutynin between oxybutynin (Oxy) group and combination (Com) group: no appreciable difference

## CC(C)NCC(O)COc1cccc2ccccc12 (stereo not drawn) [propranolol]
beta-adrenergic blocking
  potency of L-enantiomer relative to D-enantiomer: 100 times
